| Structure (SMILES) | melting point [°C] |
| --- | --- |
| COC(=O)c1cc(-c2ccc(S(C)(=O)=O)cc2)n(-c2ccccc2)n1 | 190 to 193 |
| CCc1nc2c(N)nc3ccccc3c2n1CCCCNC(=O)C(C)C | 155 to 156 |
| O=C(OCC1OC(n2cnc3c(N(C(=O)c4ccccc4)C(=O)c4ccccc4)ncnc32)C(O)(C(=O)c2ccccc2)C1(O)C(=O)c1ccccc1)c1ccccc1 (stereo unspecified) | 183 to 184 |
| COC(=O)c1ccc(C(=O)CC(=O)OCc2ccccc2)cc1 | 71 |
| CCCCOC(=O)C(OC(=O)C(C)C)OC(=O)N1CCN(c2cc3c(cc2F)c(=O)c(C(=O)O)cn3CC)CC1 (stereo unspecified) | 152 to 160 |
| CCc1nc2c(NC(=O)C(C)(C)C)nc3ccccc3c2n1CCCCNS(C)(=O)=O | 220 to 221 |
| CCCc1c(C(=O)C(C)C)c2ccc(C(N)=O)cc2n1Cc1ccccc1[N+](=O)[O-] | 181 to 182 |
| CC(C)(C)C(=O)c1ccc(C(=O)O)cc1 | 160 to 162 |
| Clc1cccnc1-c1ccc2[nH]nc(Nc3ncc(CN4CCOCC4)s3)c2c1 | 217 |
| COc1ccc(C(=NOCc2ccc(OCc3nc(-c4ccccc4)oc3C)cc2)C(=O)O)cc1 | 183 to 184 |
| O=C(NC(=O)c1c(F)cccc1F)Nc1cc(Br)c(F)c(Cl)c1F | 225 to 227 |
| CCc1ccc(C(=O)O)c(N)c1 | 117 to 120 |
| O=C(NCCO)c1cc2c(Oc3ccc(Cl)cc3)cnc(Cl)c2s1 | 129 to 132 |
| CCOCCOc1cccc2oc(-c3cccs3)cc(=O)c12 | 111 to 113 |
| OCCCCc1ccc(OCc2coc(/C=C/c3ccc(F)cc3F)n2)cc1 | 75 to 76 |
| CC1(c2ccccc2)CN(C(=O)Nc2ccc(Cl)cc2)N=C1c1ccc(Cl)cc1 (stereo unspecified) | 151 to 158 |
| Cc1ccc(O)c(C(C)(O)c2ccccc2)c1 (stereo unspecified) | 100 |
| CCCc1nc2c(N)nc3cc(-c4cncc(CO)c4)ccc3c2n1CC(C)(C)O | 225 to 226 |
| COC(=O)C[C@H](O)CC(=O)C=Cc1c(-c2ccc(F)cc2)c(-c2ccccc2)c(C(=O)NCc2ccc(F)cc2)n1C(C)C | 62 to 63 |
| O=P12CN3CN(C1)S(=O)(=O)N(C3)C2 | 245 to 246 |
| Cc1cc(C2OC(C)(C)N=C2c2ccccc2)cc(C)c1N(C)C (stereo unspecified) | 91 to 92 |
| O=C1NCCc2ccc(OCCCN3CCN(c4cccc(Cl)c4Cl)CC3)cc21 | 162 to 164 |

| Structure (SMILES) | melting point [°C] |
| --- | --- |
| O=C(Nc1ccc2c(c1)C=CC2)C(F)(F)F | 132 |
| O=C(Nc1ccccc1)c1ccc2c(c1)N(C1CC1)CNS2(=O)=O | 232 to 234 |
| Fc1ccc2[nH]c3c4c(Cl)cccc4nc-3cc2c1 | 201 to 204 |
| CC(C)(C(=O)c1ccc(OCC(=O)O)cc1)N1CCN(c2ccncc2)CC1 | 278 to 279 |
| CC1(C)OC(=O)Nc2ccc(-c3cc(Br)cc(OC(F)(F)F)c3)cc21 | 214 to 216 |
| COC(=O)CCc1cc2cc(Cl)ccc2n1S(=O)(=O)c1cc(OC)ccc1OC | 120 to 124 |
| CC(O)CSc1cc(C(C)(C)C)c(O)c(C(C)(C)C)c1 (stereo unspecified) | 82 |
| Cc1ncc(CS)c(COC(=O)c2ccccc2)c1OC(=O)c1ccccc1 | 185 to 189 |
| O=C1c2ccccc2-c2[nH]nc(-c3ccncc3)c21 | > 300 |
| CC(C#Cc1ccc(C=Cc2cccnc2)o1)N(O)C(N)=O (stereo unspecified) | 166 |
| Nc1ccc2c(c1)c(=O)oc1cccc(O)c12 | > 260 |
| CCOC(=O)c1cn(-c2nnc(C)s2)c2nc(Cl)c(F)cc2c1=O | 159 to 162 |
| Cn1cc(C2=C(c3c4n(c5ccccc35)CCC(CCN=[N+]=[N-])C4)C(=O)NC2=O)c2ccccc21 (stereo unspecified) | 262 to 264 |
| CC(=O)C1CCC2C3CCC4CC(O)C(N5CCSC(C)(C)C5)CC4(C)C3CCC12C (stereo unspecified) | 184 to 185 |
| COC(=O)c1cc(F)c(OS(=O)(=O)c2c(C)cc(C)cc2C)nc1Nc1ccc(F)cc1F | 153 to 155 |
| COC(=O)c1ccc(OCCCNc2ccc(NCc3ccc4c(c3)OCCO4)cc2)cc1 | 185 to 188 |
| CCC(=O)Nc1ccc(OC)c(=O)cc1 | 116 to 118 |
| Nc1cc(=O)n(Cc2ccc3ccccc3c2)[nH]1 | 156 to 157 |
| Nc1cc(-c2noc(-c3cnn4ccc(-c5ccc(C(F)(F)F)cc5)nc34)n2)ccn1 | 250 |
| COc1ccc(/C=C(/C#N)c2cc(OC)c(OC)c(OC)c2)cc1N | 144 to 145 |
| CCCC(=CC=CC(C)=CC(=O)O)c1cc(C(C)(C)C)cc(C(C)(C)C)c1 | 143 to 144 |
| O=Cc1c(OCc2ccccc2)cccc1C1OCCCO1 | 85 to 87 |

| Structure (SMILES) | melting point [°C] |
| --- | --- |
| Fc1cnc(Nc2nc3c(s2)CCN(CCCN2CCOCC2)c2n[nH]cc2-3)nc1 | 251 to 254 |
| CC(C)c1nc2[nH]c(=O)[nH]c(=O)c2c(-c2ccc(F)cc2)c1/C=C/C=O | 255 |
| CCOCCOCc1ccc(-c2ccc3c(c2)C=C(C(=O)Nc2ccc(CN(C)C4CCOCC4)cc2)CCS3(=O)=O)cc1 | 184 to 186 |
| N#Cc1c[nH]c2cccc(OCC3CO3)c12 (stereo unspecified) | 116 to 120 |
| CCOC(=O)c1cc(C)n(-c2cccc(I)c2)c1-c1ccccc1 | 143 to 144 |
| O=C1CC2(CCCC2)CC(=O)N1CCCCN1CCN(c2noc3cc(Cl)ccc23)CC1 | 128 |
| CCOC(=O)CCc1cn(Cc2cccc(C(=O)Nc3cccnc3)c2)nc1-c1ccccc1 | 111 to 112 |
| CCCCCCCCCC[C@@]1(C)OO[C@@H]2C[C@H]1CC(=O)[C@@H]2C | 40 |
| N#Cc1ccc(N2CCC(=O)C2)c2ccccc12 | 153 to 154 |
| CN(C)CCCn1cc(C(=O)NCc2ccc(Cl)cc2)c(=O)c2cc(C#CCO)ccc21 | 172 to 175 |
| C=C(C1=C(CCC(=O)OC)C(=O)CC1OCc1ccc(Cl)cc1)c1ccccc1 (stereo unspecified) | 114 to 115 |
| CCOC(=O)C(CCc1ccc2c(c1)OCO2)(Cc1cc(OC)c(OC)c(OC)c1)C(=O)OCC | 79.5 to 81 |
| Cc1cc2c(s1)Oc1cccc(C)c1N=C2N1CCN(C)CC1 | 114 to 117 |
| COC(=O)C1=C(c2ccc3c(c2)OCO3)c2ccc(OCc3ccccc3)cc2C1=O | 140 to 141 |
| CS(=O)(=O)N1CCCC(Nc2nccc(-n3nnc4ccccc43)n2)C1 (stereo unspecified) | 196 to 197 |
| CC(NC(=O)c1ccc(C2(C)C(=O)Nc3cc(Cl)cc(Cl)c3C2=O)cc1)c1ccccc1 (stereo unspecified) | 110 to 115 |
| COC(=O)c1cc(C=O)c(C)nc1C1=NC(C)(C(C)C)C(=O)N1 (stereo unspecified) | 145 to 146 |
| CP(=O)(O)CC(=O)CN | 148 to 149 |
| O=S(=O)(CC1CCN(CCC2CCOc3ccccc32)CC1)Nc1ccccc1 (stereo unspecified) | 186 |
| O=C(Nc1cccc(Cl)c1)c1cc2ccccc2s1 | 179 |
| COc1ccc2cc(C(C)C(=O)OCCC3(C)CCc4c(C)c(O)c(C)c(C)c4O3)ccc2c1 (stereo unspecified) | 99.5 to 102 |
| CC(C)(C(=O)O)c1cc(C(F)(F)F)cc(C(F)(F)F)c1 | 106 to 107 |

Next, values leading:

| melting point [°C] | Structure (SMILES) |
| --- | --- |
| 100 to 105 | N=C(N)NCCc1ccc(OCCC2Oc3ccccc3N(Cc3cccc(OCc4ccccc4)c3)C2=O)cc1 (stereo unspecified) |
| 136 to 140 | Cc1cccc(-c2n[nH]cc2-c2ccc(F)c(-c3c[nH]c(CC(C)(C)O)n3)c2)n1 |
| 86 to 88 | CCOC(=O)CN1C(=O)[C@@H](NC(=O)OC(C)(C)C)CC(=O)c2ccccc21 |
| 87 to 90 | Cc1cn(C(C)(C)C(=O)NCc2ccccc2)nc1-c1ccccc1 |
| 197 to 198 | NC(=O)c1nnn(Cc2ccccc2C(F)(F)F)c1N |
| 97 to 98 | CC(=O)C1(C)CCc2c(C)c(O)c(C)c(C)c2O1 (stereo unspecified) |
| 192 | NC(=S)NCc1cn(-c2ccc(N3CCOCC3)c(F)c2)nn1 |
| 185 to 186 | CC(C)(C)c1ccc(CCCO)cc1NC(=O)CC1c2ccccc2Oc2ccccc21 |
| 130 to 132 | Cc1c(-c2ccc(C(=O)O)cc2)ccc(-c2ccccc2)c1-c1ccc2c(c1)C(C)(C)CCC2(C)C |
| 166 to 170 | CCOC(=O)c1[nH]c2cccc3c2c1CCC3O (stereo unspecified) |
| 128 | O=[N+]([O-])c1c(Br)nn(Cc2ccccc2)c1Br |
| 163 to 165 | CSc1cc2c(cc1C(F)(F)F)N(C(=O)Nc1ccccc1)CC2 |
| 199 to 201 | COc1ccccc1N1CCN([C@@H]2Cc3cccc(O)c3C[C@H]2O)CC1 (relative stereo) |
| 246 to 252 | Cc1cc(-c2ccc(C(F)(F)F)cn2)nc(-c2cccc(-c3cccc(S(N)(=O)=O)c3)n2)n1 |
| 231 | O=C(Nc1ccccc1S(=O)(=O)c1ccccc1)N[C@@H](Cc1ccc(NC(=O)c2c(Br)cncc2Br)cc1)C(=O)O |
| 100 to 102 | Cc1cccc(-c2[nH]c(C(C)C)nc2-c2ccc(F)c(-c3ccc(S(C)=O)nc3)c2)n1 (stereo unspecified) |
| 156 to 158 | CCCCNC(=O)NS(=O)(=O)c1ccc(CCNC(=O)N2CCCCC2=O)cc1 |
| 94 to 96 | O=C(Cc1ccccc1)c1ccncc1 |
| 94 to 95 | CCOC(=O)/C(=N\OC1(C)CCCC1)c1csc(N)n1 |
| 153 | c1coc(Cn2c(NC3CCN(CCNc4nccs4)CC3)nc3ccccc32)c1 |
| 362 to 364 | O=C(O)c1ccc2c(c1)Sc1ccccc1NC2=O |
| 98 | CC(C)(C=O)C(O)(CCc1ccc(F)cc1)Cn1cncn1 (stereo unspecified) |
| 114 to 116 | COc1ccc(/C=C/c2ccncc2[N+](=O)[O-])cc1OC1CCCC1 |
| 110 to 114 | Cc1ccc(S(=O)(=O)OCC2CC(=O)N(Cc3ccccc3)C2c2c(Cl)cccc2Cl)cc1 (stereo unspecified) |
| 275 to 285 | O=C(c1ccc(-c2ccc(Cl)cc2)cc1)C(O)O |
| 185 to 187 | Nc1nc(-c2cc(Cl)ccc2Cl)nc(N2CCN(CCO)CC2)n1 |
| 232 to 234 | O=S1(=O)CCN2C=CC=C(c3ccc(Oc4ccc(Cl)cc4)cc3)C2=N1 |
| 155 to 156 | NC(=O)C(c1ccc([N+](=O)[O-])cc1)c1ccccn1 (racemic) |
| 147 to 149 | COC1(OC)C(NC(=O)c2ccccc2O)=CC(=O)C2OC21 (stereo unspecified) |
| 175 to 178 | CCCc1nc2c(N)nc3cc(OCc4ccccc4)ccc3c2s1 |

Reference: a melting point compilation (Tetko et al.; mined from patent text by program, amines drawn as free bases though some values may be those of a salt)
